In patent US6020343A, “(Methylsulfonyl)phenyl-2-(5H)-furanones as COX-2 inhibitors” (Merck Frosst Canada, Inc., priority 1998, dated 2000):

How the values were obtained:
[1] = molecular target: T1, COX-1 (Homo sapiens, UniProt P23219); assay: Human Whole Blood Assay, COX-1 (Clotting-induced TxB2 Production); type: cell-based; parameters: endogenous in cells; conditions: clotting-induced TxB2, 1 hour, Table III, read-out: COX-1 (IC50) HWB
From the text: As well, platelets in whole blood contain a large amount of the COX-1 enzyme. Immediately following blood clotting, platelets are activated through a thrombin-mediated mechanism. […] Therefore, the degree of selectivity by the test compound can be determined by measuring the levels of PGE2 after LPS induction (COX-2) and TxB2 following blood clotting (COX-1) in the same assay.
B. COX-1 (Clotting-induced TxB2 Production)
Fresh blood is collected into vacutainers containing no anticoagulants. Aliquots of 500 μL are immediately transferred to siliconized microcentrifuge tubes preloaded with 2 μL of either DMSO or a test compound at final concentrations varying from 10 nM to 30 μM. The tubes are vortexed and incubated at 37° C. for 1 hour to allow blood to clot. At the end of incubation, serum is obtained by centrifugation (12,000×g for 5 min.). A 100 μL aliquot of serum is mixed with 400 μL of methanol for protein precipitation.

[2] = molecular target: T1, COX-1; assay: Assay of COX-1 Activity from U937 Cell Microsomes (U937); type: biochemical; parameters: human U-937 cells (which specifically express COX-1); endogenous in cells; host or cells: microsomes of U937 cells; conditions: U937, PGE2; Table III
Procedure: Compounds are tested as inhibitors of cyclooxygenase activity in whole cell cyclooxygenase assays. Both of these assays measure prostaglandin E2 synthesis in response to arachidonic acid, using a radioimmunoassay. Cells used for these assays are human osteosarcoma 143 cells (which specifically express COX-2) and human U-937 cells (which specifically express COX-1). In these assays, 100% activity is defined as the difference between prostaglandin E2 synthesis in the absence and presence of arachidonate.
For cyclooxygenase assays, osteosarcoma cells are cultured in 1 mL of media in 24-well multidishes (Nunclon) until confluent (1-2×10^5 cells/well). […] All assays are performed in triplicate. […] Arachidonic acid (peroxide-free, Cayman Chemical) is prepared as a 10 mM stock solution in ethanol and further diluted 10-fold in HBSS. An aliquot of 10 μL of this diluted solution is added to the cells to give a final arachidonic acid concentration of 10 μM. Control samples are incubated with ethanol vehicle instead of arachidonic acid. Samples are again gently mixed and incubated for a further 10 min. at 37° C. For osteosarcoma cells, reactions are then stopped by the addition of 100 μL of 1N HCl, with mixing and by the rapid removal of the solution from cell monolayers. For U-937 cells, reactions are stopped by the addition of 100 μL of 1N HCl, with mixing.
U 937 cells are pelleted by centrifugation at 500×g for 5 min and washed once with phosphate-buffered saline and repelleted. Cells are resuspended in homogenization buffer consisting of 0.1 M Tris-HCl, pH 7.4, 10 mM EDTA, 2 μg/ml leupeptin, 2 μg/ml soybean trypsin inhibitor, 2 μg/ml aprotinin and 1 mM phenyl methyl sulfonyl fluoride. The cell suspension is sonicated 4 times for 10 sec and is centrifuged at 10,000×g for 10 min at 4° C. The supernatant is centrifuged at 100,000×g for 1 hr at 4° C. The 100,000×g microsomal pellet is resuspended in 0.1 M Tris-HCl, pH 7.4, 10 mM EDTA to approximately 7 mg protein/ml and stored at -80° C.
Assays are performed in duplicate in a final volume of 250 μl. […]

[3] = molecular target: T2, CHO [hCOX-1] (Homo sapiens, UniProt P23219); assay: Whole Cell Assay for COX-1 using CHO Transfected Cell Lines; type: cell-based; conditions: CHO [hCOX-1] cells, 0.5 μM AA, PGE2
T2 construct: expressed in transfected cells; host or cells: Chinese hamster ovary (CHO) cells, vector pCDNAIII
Procedure: Chinese hamster ovary (CHO) cell lines which have been stably transfected with an eukaryotic expression vector pCDNAIII containing either the human COX-1 or COX-2 cDNA's are used for the assay. These cell lines are referred to as CHO [hCOX-1] and CHO [hCOX-2], respectively. […] Cells (0.3×10^6 cells in 200 μl) are preincubated with 3 μl of the test drug or DMSO vehicle for 15 min at 37° C. […] Cells are then challenged in the presence or absence of drug with the AA/HBSS solution to yield a final concentration of 0.5 μM AA in the CHO[hCOX-1] assay and a final concentration of 10 μM AA in the CHO[hCOX-2] assay. […] The samples are centrifuged at 300×g at 4° C. for 10 min, and an aliquot of the clarified supernatant is appropriately diluted for the determination of PGE2 levels using an enzyme-linked immunoassay for PGE2 (Correlate PGE2 enzyme immunoassay kit, Assay Designs, Inc.). Cyclooxygenase activity in the absence of test compounds is determined as the difference in PGE2 levels of cells challenged with arachidonic acid versus the PGE2 levels in cells mock-challenged with ethanol vehicle. Inhibition of PGE2 synthesis by test compounds is calculated as a percentage of the activity in the presence of drug versus the activity in the positive control samples.

[4] = test system: carrageenan-induced paw edema; assay: Rat Paw Edema Assay; type: in vivo, Male Sprague-Dawley rats; conditions: po, paw volume 3 hr, Table IV
Procedure: Male Sprague-Dawley rats (150-200 g) are fasted overnight and are given, po, either vehicle (1% methocel or 5% Tween 80) or a test compound. One hr later, a line is drawn using a permanent marker at the level above the ankle in one hind paw to define the area of the paw to be monitored. The paw volume (V0) is measured using a plethysmometer (Ugo-Basile, Italy) based on the principle of water displacement. The animals are then injected subplantarly with 50 μl of 1% carrageenan solution in saline (FMC Corp, Maine) into the paw using an insulin syringe with a 25-gauge needle (i.e. 500 μg carrageenan per paw). Three hr later, the paw volume (V3) is measured and the increases in paw volume (V3 -VO) are calculated. The animals are sacrificed by CO2 asphyxiation and the absence or presence of stomach lesions scored. Data is compared with the vehicle-control values and percent inhibition calculated. All treatment groups are coded to eliminate observer bias.

T1 sequence (P23219 24-599): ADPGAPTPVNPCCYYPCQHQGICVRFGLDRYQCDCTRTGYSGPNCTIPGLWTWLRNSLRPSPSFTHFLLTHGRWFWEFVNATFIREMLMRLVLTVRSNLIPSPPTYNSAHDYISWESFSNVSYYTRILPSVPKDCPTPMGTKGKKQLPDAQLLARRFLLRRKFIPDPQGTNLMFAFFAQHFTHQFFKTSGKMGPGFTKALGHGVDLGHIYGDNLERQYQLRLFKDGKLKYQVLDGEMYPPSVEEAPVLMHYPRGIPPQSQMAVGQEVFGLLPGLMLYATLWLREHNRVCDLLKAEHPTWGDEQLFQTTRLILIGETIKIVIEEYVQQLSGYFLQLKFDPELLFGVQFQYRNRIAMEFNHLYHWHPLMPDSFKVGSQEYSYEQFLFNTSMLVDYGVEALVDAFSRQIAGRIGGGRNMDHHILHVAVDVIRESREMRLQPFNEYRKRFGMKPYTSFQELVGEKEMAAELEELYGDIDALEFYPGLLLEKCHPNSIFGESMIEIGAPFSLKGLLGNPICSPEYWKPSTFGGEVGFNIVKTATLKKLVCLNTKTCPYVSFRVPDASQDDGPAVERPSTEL
T2 sequence (P23219 24-599): as above

SMILES: CC1(C)OC(=O)C(Oc2cccc(F)c2)=C1c1ccc(S(C)(=O)=O)cc1 [Example 2, 3-(3-Fluorophenoxy)-5,5-dimethyl-4-(4-(methylsulfonyl)phenyl)-5H-furan-2-one]
- IC50 [1]: 23 µM

SMILES: CC1(C)OC(=O)C(Oc2cc(F)cc(F)c2)=C1c1ccc(S(C)(=O)=O)cc1 [Example 3]
- IC50 [2]: 1 µM

SMILES: CC1(C)OC(=O)C(Oc2ccc(Cl)cc2)=C1c1ccc(S(C)(=O)=O)cc1 [Example 6, 3-(4-Chlorophenoxy)-5,5-dimethyl-4-(4-(methylsulfonyl)phenyl)-5H-furan-2-one]
- IC50 [1]: 1.8 µM

SMILES: CS(=O)(=O)c1ccc(C2=C(Sc3ccccc3)C(=O)OC2)cc1 [Example 15, 3-Phenylthio-4-(4-(methylsulfonyl)phenyl)-5H-furan-2-one]
- IC50 [2]: > 10 µM

SMILES: CC1(C)OC(=O)C(C(=O)c2ccccc2)=C1c1ccc(S(C)(=O)=O)cc1 [Example 19b, 3-Benzoyl-5,5-dimethyl-4-(4-(methylsulfonyl)phenyl)-5H-furan-2-one]
- IC50 ([3]; Table III): > 50 µM

SMILES: CC1(C)OC(=O)C(Oc2ccc(Cl)cn2)=C1c1ccc(S(C)(=O)=O)cc1 [Example 25, 3-(5-Chloro-2-pyridyloxy)-5,5-dimethyl-4-(4-(methylsulfonyl)phenyl)-5H-furan-2-one]
- IC50 [2]: 3 µM

SMILES: CC1(C)OC(=O)C(Oc2ccc(F)cn2)=C1c1ccc(S(C)(=O)=O)cc1 [Example 58]
- IC50 ([3]; Table IV): > 50 µM
- ED50 [4]: 0.32 mg/kg

SMILES: CC1(C)OC(=O)C(Oc2ccc(Br)cn2)=C1c1ccc(S(C)(=O)=O)cc1 [Example 108]
- IC50 ([3]; Table IV): > 50 µM
